The source of these data is patent publication US8518459B2, “Composition for regulating lipid metabolism” (Actigenomics S.A., priority 2009, dated 2013).

The subject of data set [1] is C57B16J mice submitted to diet rich in cholesterol. Kind of data set: Non-fasting glycemia after 12 weeks. The class given is in vivo, C57bl6J male mice. The following applies: after 12 weeks of treatment. The protocol:
(§1) […] C57bl6J male mice (8 weeks of age) from breeding company Janvier (Le Genest Saint Isle, France) are distributed in cages and housed in a room with controlled humidity and temperature (23±0.5° C.). They are subject to a 12/12-hr light cycle (light at 7 am). During one week of adaptation, the animals have free access to drinking water and food, and are then randomized into 5 groups of 12 animals using as selection criteria weight, triglyceridemia and cholesterolemia.
• a control group receiving a diet enriched in cholesterol (see composition in Table 1) • a group treated with the reference, atorvastatin, 10 mg/kg/day, • a group receiving a 125 ng/kg/day concentration of Lipistase, • a group receiving PS (a mixture of phytosterols and stanols) to the total dose of 1.2 g/kg/day, • a group receiving a combination of Lipistase and phytosterols. […]
Euthanasia is performed after 3 months of treatment (12 weeks). A blood test is performed, and the following parameters are measured on an automated Konelab (Thermo Fisher, France): total cholesterol (Thermo Fisher, 981,813), triglycerides (Thermo Fisher, 981,786), glucose (Thermo Fisher, 981,780), ALAT (Thermo Fisher, 981,769), ALP (Thermo Fisher, 981,771), ASAT (Thermo Fisher, 981,771).

For data set [2] the test system is unchanged. The data set is described as follows: Index of adiponectin secretion by adipose tissue. The class given is in vivo, C57bl6J male mice. The following applies: adiponectin concentration (μg/ml)/mass of adipose tissue (g). The method, then:
as §1
(§2) • a control group receiving a diet enriched in cholesterol (see composition in Table 1) • a group treated with the reference, atorvastatin, 10 mg/kg/day, • a group receiving a 125 ng/kg/day concentration of Lipistase, • a group receiving PS (a mixture of phytosterols and stanols) to the total dose of 1.2 g/kg/day, • a group receiving a combination of Lipistase and phytosterols.
(§3) All products (reference, study products and combination of products) are administered in the diet enriched in cholesterol, and administration to animals lasts three months. Lipistase, being in the form of a soybean oil suspension, all diets receive the same volume (1.8% w/w) of neutral soybean oil than that required to provide the desired amount of Lipistase. […]

Data set [3] shares this test system. Kind of data set: Adiposity index and distribution of white adipose tissue after 12 weeks. The data set is classed as in vivo, C57bl6J male mice. The following applies: after 12 weeks of treatment. The method, then: as §1, §2
(§4) All products (reference, study products and combination of products) are administered in the diet enriched in cholesterol, and administration to animals lasts three months. Lipistase, being in the form of a soybean oil suspension, all diets receive the same volume (1.8% w/w) of neutral soybean oil than that required to provide the desired amount of Lipistase.
Animals are sacrificed by cervical dislocation; liver, muscles (gastrocnemius and soleus), heart are quickly dissected, weighed and frozen in liquid nitrogen, then stored at −80° C. The various deposits of fat tissues (subcutaneous, peri-renal, inguinal and mesenteric) are removed and weighed to calculate the adiposity index.

Data set [4] shares this test system. Kind of data set: Distribution of cholesterol in lipoproteins by FPLC. The data set is classed as in vivo, C57bl6J male mice. The following applies: VLDL fraction. The protocol: as §1, §2
All products (reference, study products and combination of products) are administered in the diet enriched in cholesterol, and administration to animals lasts three months. […]
The determination of lipoprotein profiles is carried out by FPLC (Synelvia, France) after two and three months of treatment and the amounts of cholesterol and triglycerides are measured in the different fractions (HDL, LDL and VLDL).

The nature of data set [5]: Body weight and weight gain of mice on cholesterol-enriched diet, 12 weeks of treatment. The following applies: diet rich in cholesterol. The data set is classed as in vivo, C57bl6J male mice. The method, then: as §1, §2, §4
The assessment of weight and food intake is carried out once a week. […]

Data set [6] concerns C57B16J mice submitted to diet rich in cholesterol. The data set is described as follows: Non-fasting insulinemia after 12 weeks. The data set is classed as in vivo, C57bl6J male mice. The following applies: after 12 weeks of treatment. The protocol:
as §1, §2, §3

The conditions of data set [7]: intestinal tract; cited from earlier work.

Turning to `CC(C)c1c(C(=O)Nc2ccccc2)c(-c2ccccc2)c(-c2ccc(F)cc2)n1CC[C@@H](O)C[C@@H](O)CC(=O)O` [atorvastatin], in data set [1], the “Glycemia / blood sugar, effect in words” value is “at the same level than that of the control animals”. Moreover, the “Adiponectin secretion index, effect in words (FIG. 9)” value in data set [2] was “significantly elevated”. For the same compound, in data set [3], the “Adiposity index, effect in words (FIG. 5)” value is “reduction of this index”; the “Epididymal fat, percentage change compared to controls HC (FIG. 6)” value is listed as −46%; the “Perirenal (deep) fat, percentage change compared to controls HC (FIG. 6)” value is reported as −48%; the “Subcutaneous fat, percentage change compared to controls HC (FIG. 6)” value is on record as −57%. Also, the “Free cholesterol in VLDL, percentage change compared to controls HC (FIG. 11b)” value in data set [4] is given as −35%. Also, in data set [5], the “Body weight compared to control animals (FIG. 1)” value is on record as “significantly lower” and the “Weight gain (FIG. 2)” value is given as “reduction of weight gain”. Also, in data set [6], the “Insulin levels, percentage change compared to controls HC (FIG. 14)” value was −50% and the “Insulinemia, circulating rate (FIG. 14)” value turned out to be 2.79 ± 0.33 ng/mL.

In the case of `CC(C)CCC[C@@H](C)[C@H]1CC[C@H]2[C@@H]3CC=C4C[C@@H](O)CC[C@]4(C)[C@H]3CC[C@]12C` [cholesterol], in data set [7], the Intestinal absorption is on record as 50%.

On to `CC[C@H](CC[C@@H](C)[C@H]1CC[C@H]2[C@@H]3CC[C@H]4C[C@@H](O)CC[C@]4(C)[C@H]3CC[C@]12C)C(C)C` [sitostanol], for which the Intestinal absorption in data set [7] is 1%.

Consider `CC[C@H](CC[C@@H](C)[C@H]1CC[C@H]2[C@@H]3CC=C4C[C@@H](O)CC[C@]4(C)[C@H]3CC[C@]12C)C(C)C` [sitosterol], for which the Intestinal absorption in data set [7] is given as 4-7%.
